Activity calls are given as the source filed them.
Experiments:
Cytochrome P450 3A4 = Cytochrome P450 3A4 (Homo sapiens, UniProt P08684); settings: Potency;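 also: confirmatory qHTS run detecting inhibitors and substrates of CYP3A4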
[1] = target: T1, Serine/threonine-protein phosphatase (Homo sapiens, UniProt Q9BPW0); experiment: Counterscreen for inhibitors of PP1: fluorescence-based biochemical high throughput dose response assay to identify inhibitors of Protein Phosphatase 5 (PP5). [Related pubchem assays: 2034 (Summary (PP5 inhibitors)), 1987 (PP5 inhibitors in singlate), 2235 (PP1 inhibitors in singlate)]
T1 sequence (Q9BPW0 whole entry): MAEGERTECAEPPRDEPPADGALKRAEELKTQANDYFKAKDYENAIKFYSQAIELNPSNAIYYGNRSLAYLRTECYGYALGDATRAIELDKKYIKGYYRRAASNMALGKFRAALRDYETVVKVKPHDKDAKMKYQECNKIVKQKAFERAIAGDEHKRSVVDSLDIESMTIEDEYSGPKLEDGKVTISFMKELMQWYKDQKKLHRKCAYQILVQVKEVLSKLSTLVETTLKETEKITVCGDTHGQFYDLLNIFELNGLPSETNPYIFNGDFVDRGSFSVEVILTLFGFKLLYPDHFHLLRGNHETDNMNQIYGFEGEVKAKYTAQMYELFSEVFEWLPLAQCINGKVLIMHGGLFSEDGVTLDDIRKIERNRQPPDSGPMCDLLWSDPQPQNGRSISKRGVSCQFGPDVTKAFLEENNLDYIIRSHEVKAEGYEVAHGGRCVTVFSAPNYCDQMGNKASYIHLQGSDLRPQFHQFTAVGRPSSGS

[2] = target: Eukaryotic translation initiation factor 4H (Homo sapiens, UniProt Q15056); experiment: human eIF4H binding inhibitors, primary screen, translation initiation inhibitor project, biochemical, uHTS, fluorescence polarization (AID 2012)
[3] = target: Polyadenylate-binding protein 1 (Homo sapiens, UniProt P11940); experiment: PABP poly(A) RNA binding inhibitors, primary screen, biochemical, fluorescence polarization, uHTS (AID 2014)
Chain of Polyadenylate-binding protein 1 (P11940 whole entry): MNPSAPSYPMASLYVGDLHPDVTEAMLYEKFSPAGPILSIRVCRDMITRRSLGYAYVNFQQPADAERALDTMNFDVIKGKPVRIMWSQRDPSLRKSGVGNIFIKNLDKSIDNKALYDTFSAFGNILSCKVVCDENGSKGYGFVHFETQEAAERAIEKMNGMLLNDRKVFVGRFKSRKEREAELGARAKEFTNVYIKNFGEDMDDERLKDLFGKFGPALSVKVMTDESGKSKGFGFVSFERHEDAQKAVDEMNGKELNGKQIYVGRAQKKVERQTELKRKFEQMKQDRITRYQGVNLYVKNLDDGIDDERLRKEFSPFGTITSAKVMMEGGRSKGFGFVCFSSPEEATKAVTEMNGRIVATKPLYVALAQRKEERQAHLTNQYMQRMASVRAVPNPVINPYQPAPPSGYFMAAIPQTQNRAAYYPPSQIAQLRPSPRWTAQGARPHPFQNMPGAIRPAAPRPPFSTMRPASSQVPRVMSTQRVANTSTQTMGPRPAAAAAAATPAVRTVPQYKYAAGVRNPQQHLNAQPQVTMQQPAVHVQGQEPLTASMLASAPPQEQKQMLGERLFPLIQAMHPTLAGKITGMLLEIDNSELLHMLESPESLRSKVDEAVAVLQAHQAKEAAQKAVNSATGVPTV

[4] = target: Serine/threonine-protein phosphatase PP1-alpha catalytic subunit (Homo sapiens, UniProt P62136); experiment: PP1 phosphatase inhibitors, dose response, biochemical, fluorescence (AID 2403);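 also: phosphatase turnover of OMFP into fluorescent 3-O-methylfluorescein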
Chain of Serine/threonine-protein phosphatase PP1-alpha catalytic subunit (P62136 whole entry): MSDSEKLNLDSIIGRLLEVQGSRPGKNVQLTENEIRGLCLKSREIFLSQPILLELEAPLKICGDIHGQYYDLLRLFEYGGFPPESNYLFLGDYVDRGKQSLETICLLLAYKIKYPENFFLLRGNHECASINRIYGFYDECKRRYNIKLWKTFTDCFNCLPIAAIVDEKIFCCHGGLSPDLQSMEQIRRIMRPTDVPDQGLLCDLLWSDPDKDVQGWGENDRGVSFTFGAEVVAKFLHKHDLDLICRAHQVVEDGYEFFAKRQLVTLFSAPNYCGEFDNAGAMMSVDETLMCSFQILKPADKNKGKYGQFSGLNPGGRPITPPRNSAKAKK

SUMO-activating enzyme [5] = target: T2, SUMO-activating enzyme (Homo sapiens, UniProt Q9UBT2); experiment: inhibitors of in vitro SUMOylation cascade, primary screen, biochemical, HTRF, uHTS (AID 2006); type: protein-complex assay
T2 sequence (Q9UBE0 whole entry): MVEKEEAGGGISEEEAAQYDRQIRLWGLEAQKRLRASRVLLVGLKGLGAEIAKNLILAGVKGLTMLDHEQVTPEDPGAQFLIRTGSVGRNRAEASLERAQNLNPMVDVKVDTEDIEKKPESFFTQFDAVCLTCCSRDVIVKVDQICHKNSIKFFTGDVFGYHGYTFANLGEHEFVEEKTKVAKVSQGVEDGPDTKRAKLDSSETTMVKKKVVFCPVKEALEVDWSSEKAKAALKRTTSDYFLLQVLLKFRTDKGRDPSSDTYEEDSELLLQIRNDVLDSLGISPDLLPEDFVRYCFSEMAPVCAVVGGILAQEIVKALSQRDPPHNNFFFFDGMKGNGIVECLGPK
T2 sequence (Q9UBT2 whole entry): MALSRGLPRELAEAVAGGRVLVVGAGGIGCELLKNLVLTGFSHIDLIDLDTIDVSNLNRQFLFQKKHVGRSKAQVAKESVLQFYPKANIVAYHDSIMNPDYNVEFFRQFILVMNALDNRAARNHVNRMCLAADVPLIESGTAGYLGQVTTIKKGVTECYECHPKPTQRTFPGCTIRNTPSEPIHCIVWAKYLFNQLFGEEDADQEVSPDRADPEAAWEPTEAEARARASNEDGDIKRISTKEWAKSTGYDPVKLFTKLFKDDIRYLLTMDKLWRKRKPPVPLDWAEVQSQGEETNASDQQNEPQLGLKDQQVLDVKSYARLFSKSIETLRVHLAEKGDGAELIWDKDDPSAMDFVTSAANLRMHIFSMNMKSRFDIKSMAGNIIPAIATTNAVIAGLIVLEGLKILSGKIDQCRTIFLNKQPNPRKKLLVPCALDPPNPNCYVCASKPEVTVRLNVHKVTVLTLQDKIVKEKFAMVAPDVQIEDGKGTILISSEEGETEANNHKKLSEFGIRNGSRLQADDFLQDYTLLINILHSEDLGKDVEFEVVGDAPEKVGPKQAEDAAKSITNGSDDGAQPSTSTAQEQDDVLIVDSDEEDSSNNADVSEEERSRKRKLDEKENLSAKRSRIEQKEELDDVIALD

SUMO-activating enzyme [6] = target: T2, SUMO-activating enzyme; experiment: SUMOylation inhibitor hit validation, confirmation, SUMOylation inhibitor project, biochemical, AlphaScreen (AID 2018); type: functional
[7] = cytotoxicity in HEK-293T cells, dose response, cytotoxicity control for BCR NF-kB inhibitor project, luminescence, B-cell screen hits (AID 489021); type: functional, cell-based;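 also: HEK-293T cells carrying an NF-kB luciferase reporter; cells exposed to compound for about 14 hours before viability readout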
[8] = target: T3, Epstein-Barr nuclear antigen 1 (Epstein-Barr virus (strain B95-8) (HHV-4) (Human herpesvirus 4), UniProt P03211); experiment: EBNA-1 inhibitors, dose response, biochemical, fluorescence polarization, 1536-well (AID 2381); design: species or system human gammaherpesvirus 4;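 also: fluorescence polarization of a Cy5 DNA probe bound by EBNA-1 protein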
T3 sequence (P03211 whole entry): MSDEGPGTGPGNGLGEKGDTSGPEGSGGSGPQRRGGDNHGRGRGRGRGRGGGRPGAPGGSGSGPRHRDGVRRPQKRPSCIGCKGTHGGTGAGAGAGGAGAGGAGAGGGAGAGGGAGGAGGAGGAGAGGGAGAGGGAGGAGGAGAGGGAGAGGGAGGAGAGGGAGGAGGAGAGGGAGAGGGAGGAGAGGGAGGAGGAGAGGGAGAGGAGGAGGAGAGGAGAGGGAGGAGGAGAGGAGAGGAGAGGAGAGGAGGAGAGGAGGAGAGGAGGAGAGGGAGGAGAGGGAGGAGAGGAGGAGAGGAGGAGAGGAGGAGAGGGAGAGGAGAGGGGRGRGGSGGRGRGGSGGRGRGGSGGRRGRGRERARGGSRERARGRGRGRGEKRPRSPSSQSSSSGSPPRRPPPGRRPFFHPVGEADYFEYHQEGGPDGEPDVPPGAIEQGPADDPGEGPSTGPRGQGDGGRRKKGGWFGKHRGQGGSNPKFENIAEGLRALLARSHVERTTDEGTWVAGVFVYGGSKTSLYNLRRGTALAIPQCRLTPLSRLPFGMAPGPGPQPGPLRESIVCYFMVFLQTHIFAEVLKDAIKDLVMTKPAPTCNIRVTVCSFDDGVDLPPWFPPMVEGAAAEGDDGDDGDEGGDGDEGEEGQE

[9] = target: Peroxisome proliferator-activated receptor gamma/Nuclear receptor coactivator 3 (Homo sapiens, UniProt P37231); experiment: TR-FRET dose response biochemical High Throughput Screening assay for agonists of the steroid receptor coactivator 3 (SRC-3) recruitment by the peroxisome proliferator-activated receptor gamma (PPAR gamma): non-selective agonists. [Related pubchem assays: 1301 (Confirmation screen.), 1048 (Primary screen.)]; type: functional
[10] = target: Peroxisome proliferator-activated receptor gamma/Nuclear receptor coactivator 2 (Homo sapiens, UniProt P37231); experiment: (§1) TR-FRET dose response biochemical High Throughput Screening assay for agonists of the steroid receptor coactivator 2 (SRC-2) recruitment by the peroxisome proliferator-activated receptor gamma (PPAR gamma): non-selective agonists. [Related pubchem assays: 1297, 1032 ]; type: functional
[11] = target: T4, Lytic switch protein BZLF1 (Epstein-Barr virus (strain B95-8) (HHV-4) (Human herpesvirus 4), UniProt P03206); experiment: EBV ZTA inhibitors, dose response, counter-screen for EBNA-1 inhibitor project, biochemical, fluorescence polarization, Epstein-Barr virus, 1536-well (AID 2377); design: species or system human gammaherpesvirus 4;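 also: fluorescence polarization of Cy5-labelled ZRE DNA probe bound by purified Zta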
T4 sequence (P03206 whole entry): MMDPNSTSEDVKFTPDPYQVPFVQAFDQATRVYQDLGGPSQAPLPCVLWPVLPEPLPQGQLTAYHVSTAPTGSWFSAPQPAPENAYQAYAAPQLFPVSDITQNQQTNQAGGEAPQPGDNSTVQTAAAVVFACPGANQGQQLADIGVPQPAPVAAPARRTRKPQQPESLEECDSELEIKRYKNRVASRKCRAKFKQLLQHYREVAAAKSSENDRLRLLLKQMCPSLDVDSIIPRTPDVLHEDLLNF

[12] = target: Peroxisome proliferator-activated receptor gamma/Nuclear receptor coactivator 1 (Homo sapiens, UniProt P37231); experiment: as §1, with “1 (SRC-1)” for “2 (SRC-2)”, “assays (depositor defined):AID1300, AID1808, AID504735, AID631]” for “assays: 1297, 1032 ]”; type: protein assay
Streptococcus = experiment: Group A Streptococcus viability loss, dose response, counter-screen for streptokinase expression inhibitor project, luminescence, BacTiterGlo (AID 1915); type: functional, organism-based;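 also: potency for reduction of bacterial viability or growth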
Streptokinase A = target: T5, Streptokinase A (Streptococcus pyogenes serotype M1, UniProt P10520); experiment: S. pyogenes streptokinase expression inhibitors, potency, dose response, plasminogen activation absorbance, OD405 (AID 1914); type: functional, Streptococcus pyogenes M1 GAS;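 also: secreted streptokinase activity via plasminogen activation per viability signal from cell pellet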
T5 sequence (P10520 whole entry): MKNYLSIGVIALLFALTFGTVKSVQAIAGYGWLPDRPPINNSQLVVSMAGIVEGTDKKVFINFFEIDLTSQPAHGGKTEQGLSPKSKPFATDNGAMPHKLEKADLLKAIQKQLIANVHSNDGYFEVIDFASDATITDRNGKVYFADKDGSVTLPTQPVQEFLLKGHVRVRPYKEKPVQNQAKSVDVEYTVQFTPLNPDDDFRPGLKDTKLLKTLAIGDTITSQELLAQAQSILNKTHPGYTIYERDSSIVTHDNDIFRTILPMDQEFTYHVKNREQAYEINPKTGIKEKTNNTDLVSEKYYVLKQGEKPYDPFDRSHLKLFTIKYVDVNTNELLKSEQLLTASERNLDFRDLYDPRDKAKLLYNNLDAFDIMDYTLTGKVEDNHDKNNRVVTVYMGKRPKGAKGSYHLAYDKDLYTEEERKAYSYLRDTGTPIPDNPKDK

[13] = tested on: Streptococcus sp. 'group A'; experiment: growth inhibition of control SK(-) GAS strain, dose response, counter-screen for streptokinase expression inhibitor project, luminescence, kanamycin, BacTiterGlo, confirmation (AID 1900); type: functional, organism-based
[14] = target: Luciferin 4-monooxygenase (Photinus pyralis, UniProt P08659); experiment: Counter Screen for Luciferase-based Assay Positives. [Related pubchem assays: 620, 618, 411 ]
Chain of Luciferin 4-monooxygenase (P08659 whole entry): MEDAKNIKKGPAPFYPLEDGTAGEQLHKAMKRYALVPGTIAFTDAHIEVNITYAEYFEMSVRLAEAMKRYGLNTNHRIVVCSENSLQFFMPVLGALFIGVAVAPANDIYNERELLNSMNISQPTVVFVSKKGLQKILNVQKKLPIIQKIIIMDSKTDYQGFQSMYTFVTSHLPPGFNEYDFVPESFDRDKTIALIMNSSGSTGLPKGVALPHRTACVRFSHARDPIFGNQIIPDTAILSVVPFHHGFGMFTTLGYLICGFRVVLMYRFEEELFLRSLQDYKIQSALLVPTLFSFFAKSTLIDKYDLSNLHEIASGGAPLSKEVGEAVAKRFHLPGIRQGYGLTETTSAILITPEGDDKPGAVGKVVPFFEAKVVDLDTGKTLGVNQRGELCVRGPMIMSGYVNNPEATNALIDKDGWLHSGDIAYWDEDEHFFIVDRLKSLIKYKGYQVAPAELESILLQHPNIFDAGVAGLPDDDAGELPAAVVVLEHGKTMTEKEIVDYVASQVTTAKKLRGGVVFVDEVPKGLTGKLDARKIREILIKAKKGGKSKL

HT-1080 = experiment: cytotoxicity in HT1080 fibrosarcoma cells, cell-based, fluorescence readout (AID 620); type: functional; settings: Homo sapiens

Chain of Cytochrome P450 3A4 (P08684 whole entry): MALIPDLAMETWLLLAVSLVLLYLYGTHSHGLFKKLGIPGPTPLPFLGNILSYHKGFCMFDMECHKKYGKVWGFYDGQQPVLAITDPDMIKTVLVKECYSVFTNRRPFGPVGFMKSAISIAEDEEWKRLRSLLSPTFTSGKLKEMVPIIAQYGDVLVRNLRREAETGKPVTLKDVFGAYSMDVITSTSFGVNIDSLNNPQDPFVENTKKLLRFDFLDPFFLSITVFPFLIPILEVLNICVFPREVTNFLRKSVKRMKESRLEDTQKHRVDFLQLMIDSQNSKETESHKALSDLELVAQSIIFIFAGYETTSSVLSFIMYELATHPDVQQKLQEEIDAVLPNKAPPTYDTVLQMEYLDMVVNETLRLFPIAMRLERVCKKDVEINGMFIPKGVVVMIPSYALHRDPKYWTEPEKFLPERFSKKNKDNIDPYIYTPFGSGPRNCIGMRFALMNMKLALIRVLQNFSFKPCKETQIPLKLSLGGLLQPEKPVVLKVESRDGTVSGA

**Q.** For `C[C@H]1[C@H](C)CC[C@]2(C(=O)O)CC[C@]3(C)C(=CCC4[C@@]5(C)C[C@@H](O)[C@H](O)[C@@](C)(CO)[C@@H]5CC[C@]43C)[C@H]12` (stereo partly specified), which AC50 (Cytochrome P450 3A4) is on record?
**A.** Its AC50 is 15.8 µM (inconclusive).

**Q.** With `N#Cc1c(-c2ccc(Cl)cc2)cc(-c2cccs2)nc1SCC(=O)O` as the compound, how does the IC50 [1] read?
**A.** The IC50 was > 67 µM (not active).

**Q.** What about the IC50 [2] of the same compound?
**A.** Its IC50 is 10.7 µM (active).

**Q.** And the IC50 [3]?
**A.** Its IC50 is 39.7 µM (active).

**Q.** And the IC50 [4]?
**A.** Its IC50 is 6.66 µM (active).

**Q.** What about the IC50 (SUMO-activating enzyme [5]) of the same compound?
**A.** The IC50 was > 100 µM (inactive).

**Q.** And the IC50 (SUMO-activating enzyme [6])?
**A.** The IC50 was 8.73 µM (active).

**Q.** Which IC50 [7] does the source give for `COc1ccc(C=C(C(C)=O)C(C)=O)cc1OC` here?
**A.** The IC50 was > 80 µM (inactive).

**Q.** For `O=C(CSc1ncnc2c1oc1ccccc12)Nc1cccc(F)c1`, which IC50 [8] is on record?
**A.** Its IC50 is > 148 µM (not active).

**Q.** And the EC50 [9]?
**A.** Its EC50 is > 79.4 µM (not active).

**Q.** What about the EC50 [10] of the same compound?
**A.** Its EC50 is 15.6 µM (not active).

**Q.** What about the IC50 [11] of the same compound?
**A.** The IC50 was > 111 µM (not active).

**Q.** And the EC50 [12]?
**A.** Its EC50 is > 26.5 µM (inactive).

**Q.** With `Cn1c(O)c(N=NC(=O)c2cc(-c3cccs3)nc3ccccc23)c2ccccc21` as the compound, how does the IC50 [8] read?
**A.** Its IC50 is 2.73 µM (active).

**Q.** And the EC50 (Streptococcus)?
**A.** Its EC50 is 16.7 µM (active).

**Q.** And the EC50 (Streptokinase A)?
**A.** Its EC50 is > 150 µM (not active).

**Q.** And the EC50 [13]?
**A.** The EC50 was 9.12 µM (active).

**Q.** And the IC50 [11]?
**A.** Its IC50 is > 111 µM (not active).

**Q.** With `c1ccc(N2CCN(Cc3nc4ccccc4[nH]3)CC2)nc1` as the compound, how does the AC50 (Cytochrome P450 3A4) read?
**A.** The AC50 was 25.1 µM (inconclusive).

**Q.** Which results are given for `Cc1ccc(O)c(/C=N/NC(=O)C2=NNC(c3ccccc3)(c3ccccc3)C2)c1`?
**A.** EC50 [14]: 5.52 µM (active); EC50 (HT-1080): > 50 µM (not active)
